Experimental findings from PubChem BioAssay (NCI) are described below.

Holding throughout (assay): growth of human tumour cells (NCI), 48 h
Assay [1] has as its system KM12 colon.
The subject of assay [2] is A549 NSCLC.
The subject of assay [3] is 786-0 renal.
The subject of assay [4] is HS 578T breast.
In assay [5] the test system is HCT-15 colon.
The test system of assay [6] is T-47D breast.
In assay [7] the test system is OVCAR-8 ovarian.
Assay [8] relates to SF-295 CNS.
In assay [9] the test system is UACC-62 melanoma.
Assay [10] concerns HOP-92 NSCLC.
For assay [11], the system named is NCI-H23 lung.
Assay [12] has as its system ACHN renal.
Assay [13] has as its system NCI-H522 lung.
The subject of assay [14] is SK-MEL-5 melanoma.
Assay [15] deals with SNB-75 CNS.
Assay [16] has as its system RPMI-8226 leukemia.
Assay [17] relates to OVCAR-4 ovarian.
Assay [18] relates to OVCAR-5 ovarian.
The subject of assay [19] is MALME-3M melanoma.

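48-hour exposure; five concentrations; linearly interpolated endpoints. At the TGI there is no net growth.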

For `Cc1ccc(O)c(C(c2ccc([N+](=O)[O-])cc2)c2cc(C)ccc2O)c1`, the TGI in assay [1] turned out to be 20.7 µM; in assay [2], 25.6 µM; in [3], 44.5 µM; in assay [4], 24 µM; in assay [5] it was 23.8 µM; in [6], 34.7 µM. For the same compound, the TGI turned out to be 30.7 µM in assay [7]; 31.3 µM in assay [8]; 21.7 µM in assay [9]; 28.7 µM in assay [10]; 21.5 µM in assay [11]; 19.2 µM in [12]. Further, the TGI in [13] is 28.6 µM; in assay [14], > 100 µM; in assay [15] it was 15.5 µM; in [16] it was 29.8 µM; in assay [17], 23.8 µM; in [18], 28.9 µM.
Consider `Cc1cc2c(cc1Cl)SC(c1ccccc1)C(=O)NS2(=O)=O` (centres undefined), for which the TGI was > 100 µM in assay [1]; > 100 µM in [3]; 59.4 µM in assay [4]; 64 µM in assay [5]; 84.6 µM in assay [6]; > 100 µM in assay [7]. In addition, the TGI in [8] is 95.6 µM; in [10] it was > 100 µM; in assay [11], 56.2 µM; in assay [12], > 100 µM; in assay [13], 59.7 µM; in [14] it was 48.8 µM. For the same compound, the TGI in assay [15] was 87 µM; in assay [16] it was > 100 µM; in assay [17], > 100 µM; in assay [18], > 100 µM.
Turning to `C=CCOC(=O)Cn1cc(C)c(=O)[nH]c1=O`, the TGI in assay [1], in assay [2], in [3], in assay [4], in [5] and in [6] was > 100 µM throughout. The TGI in [7], in assay [8], in [9], in assay [11], in [19] and in assay [12] was > 100 µM throughout. In addition, the TGI in assay [14], in [15], in [16] and in [17] was > 100 µM each time.
Regarding `CN(C)c1ccc(/C=C(\NC(=O)c2ccccc2)C(=O)NCC(=O)O)cc1`, the TGI in assay [1], in [2], in assay [3], in assay [4], in assay [5] and in [6] was > 100 µM in each case. The TGI in assay [7], in [8], in assay [9], in assay [10], in [11] and in assay [19] was > 100 µM each time. Besides, the TGI in assay [12], in assay [13], in [14], in assay [15], in [16] and in [18] was > 100 µM in each case.
Regarding `n1onc2c1NC1Nc3nonc3NC1N2` (centres undefined), the TGI in [1], in assay [2], in [3], in assay [4], in assay [5] and in [6] was > 100 µM in each case. For the same compound, the TGI in [7], in assay [8], in assay [10], in assay [11], in [12] and in [13] was > 100 µM throughout. For the same compound, the TGI in assay [14], in assay [15], in assay [16], in assay [17] and in assay [18] was > 100 µM in each case.
With `Cc1ncc([N+](=O)[O-])n1CCN(C)C(=O)CCCn1ccnc1[N+](=O)[O-]`, the TGI in [1], in assay [2], in assay [3], in assay [4], in [5] and in assay [6] was > 100 µM each time. Moreover, the TGI in assay [7], in assay [8], in assay [9], in assay [11], in assay [19] and in assay [12] was > 100 µM each time. Besides, the TGI in assay [13], in assay [14], in [15], in [16], in assay [17] and in [18] was > 100 µM in each case.
In the case of `S=c1nc(Cc2ccc(Cl)cc2)[nH][nH]1`, the TGI in [1] was > 100 µM; in assay [2] it was > 100 µM; in assay [3], > 100 µM; in assay [4] it was > 100 µM; in assay [5], > 100 µM; in [6] it was 99.6 µM. In addition, the TGI in assay [7] is > 100 µM; in assay [8] it was > 100 µM; in assay [9], > 100 µM; in assay [10] it was 85.7 µM; in assay [11] it was > 100 µM; in assay [19], > 100 µM. Also, the TGI in assay [12], in [14], in assay [15], in assay [17] and in assay [18] was > 100 µM throughout.
Turning to `COc1ccc(NC(=O)CC(=O)N2N=C(c3ccccc3)C(N=Nc3ccc(S(=O)(=O)CCOS(=O)(=O)O)cc3)C2=O)cc1` (centres undefined), the TGI in assay [1], in [2], in assay [3], in [4], in [5] and in assay [6] was > 100 µM each time. In addition, the TGI in [7], in assay [8], in assay [9], in [10], in assay [11] and in [19] was > 100 µM in each case. For the same compound, the TGI in [12], in assay [13], in assay [14], in assay [15] and in assay [16] was > 100 µM in each case.
On to `CC(C)CC[C@H](O)[C@@H](C)[C@H]1[C@@H](OC2OC(C)C(O)C(O)C2O)C[C@H]2[C@@H]3CC=C4C[C@@H](O)CC[C@]4(C)[C@H]3[C@@H](O)C[C@]12C` (some centres undefined), for which the TGI in [2] is > 100 µM; in [3] it was > 100 µM; in assay [4], 2.36 µM; in [5] it was > 100 µM; in [6] it was > 100 µM; in [7], > 100 µM. The TGI is 0.222 µM in assay [8]; 3.21 µM in assay [9]; 6.7 µM in [10]; > 100 µM in assay [11]; > 68.9 µM in assay [19]; > 100 µM in assay [12]. The TGI is > 100 µM in assay [13]; > 58 µM in [14]; 59.1 µM in assay [15]; 0.229 µM in [16]; > 100 µM in assay [18].
On to `O=C1CS(=O)(=O)C(c2cccc(Oc3ccccc3)c2)N1c1cccc(Cl)c1` (centres undefined), for which the TGI in [1] was > 100 µM; in [2] it was > 100 µM; in [3], 40.3 µM; in assay [4], 97 µM; in assay [5], > 100 µM; in assay [6] it was > 100 µM. Further, the TGI is 82.8 µM in assay [7]; > 100 µM in [8]; 29.4 µM in assay [9]; 40.5 µM in [10]; > 100 µM in assay [11]; 52.6 µM in assay [19]. The TGI in assay [12] is 59.5 µM; in assay [13], 45.2 µM; in [14] it was 31.1 µM; in [15], > 100 µM; in assay [17] it was > 100 µM; in assay [18], > 100 µM.
For `CC(C)(C)OC(=O)CC(NC(=O)OC(C)(C)C)C(=O)N[C@@H]1CCCC[C@H]1C(=O)OCc1ccccc1` (some centres undefined), the TGI is > 100 µM in assay [1]; 93.4 µM in assay [2]; > 100 µM in assay [3]; 48 µM in [4]; 39.4 µM in assay [5]; 59.3 µM in assay [6]. Moreover, the TGI in assay [7] is > 100 µM; in [8], 70.2 µM; in assay [9], 60.8 µM; in assay [10], > 100 µM; in assay [11], 85.3 µM; in assay [19], > 100 µM. Also, the TGI in assay [12] is > 100 µM; in assay [14], 24.5 µM; in assay [15] it was > 100 µM; in assay [16] it was 95.4 µM; in assay [17], > 100 µM; in [18], > 100 µM.
Consider `CCCN1CC=C(c2cc(C(=O)OCC)[nH]c2-c2cc(C)no2)C1=O`, for which the TGI in assay [1], in assay [2], in [3], in assay [4], in assay [5] and in assay [6] was > 100 µM each time. For the same compound, the TGI in assay [7], in assay [8], in assay [9], in assay [10], in assay [11] and in [19] was > 100 µM throughout. Besides, the TGI in [14], in assay [15], in [16], in [17] and in [18] was > 100 µM in each case.
For `CC1=NNC(=O)C1C1CC(c2c[nH]c3ccccc23)=NNC1=S` (centres undefined), the TGI in assay [1], in assay [2], in [3], in [4], in assay [5] and in assay [6] was > 100 µM throughout. Further, the TGI in [7], in [8], in [9], in assay [10], in assay [11] and in [19] was > 100 µM in each case. In addition, the TGI in assay [12], in assay [13], in [14], in assay [15], in [16] and in assay [18] was > 100 µM in each case.
With `Cn1c(N)c(C(N)=O)[nH]c1=S`, the TGI in assay [1], in assay [2], in assay [3], in assay [4], in [5] and in assay [6] was > 100 µM throughout. Besides, the TGI in assay [7], in assay [8], in assay [9], in [11], in [19] and in assay [12] was > 100 µM in each case. The TGI in assay [13], in assay [14], in assay [15], in assay [16], in assay [17] and in assay [18] was > 100 µM in each case.
As for `COC(=O)C1CCOC(C)N1C(=O)OC(C)(C)C` (centres undefined), the TGI in assay [1], in [2], in assay [3], in assay [4], in assay [5] and in assay [6] was > 100 µM each time. For the same compound, the TGI in [7], in assay [8], in assay [9], in assay [11], in [19] and in [12] was > 100 µM in each case. For the same compound, the TGI in assay [13], in [14], in assay [15], in [16], in [17] and in assay [18] was > 100 µM each time.
`CC1=NOC2(C1)C(=O)Nc1ccccc12` (centres undefined): the TGI in assay [1], in [2], in assay [3], in [4], in assay [5] and in [6] was > 100 µM throughout. For the same compound, the TGI in [7], in assay [8], in assay [9], in [11], in assay [19] and in assay [12] was > 100 µM each time. Further, the TGI in assay [13], in assay [14], in assay [15], in [16], in assay [17] and in [18] was > 100 µM in each case.
